Laboratory results reported in US11421006B2, “T cell epitopes from Cockroach and methods of making and using same” (LA JOLLA INSTITUTE FOR ALLERGY AND IMMUNOLOGY, priority 2012, dated 2022).
Values joined by “and” are separate entries in the source; they are usually repeats but may differ in a detail not shown here. Identical values can stand only once.

Test system: Bla g-specific T cells (PBMC)
Experiment: ELISPOT assays: IL-5, IFN-γ and IL-10 production by in vitro expanded PBMC of Cockroach-allergic donors
Format: cell-based, human
Settings: for POST-SIT IFNg / POST-SIT IL-5 / POST-SIT IL-10: 6 months after initiation of SIT; for Total SFCs: IL-5 plus IFN-γ, summed over responding donors; for PRE-SIT IL-5 / PRE-SIT IL-10 / PRE-SIT IFNg: before SIT; for PRE-SIT IFNg: one line per donor/peptide; for Cumulative Response: cumulative over regions ranked by total SFCs; for IFNγ / IL-5: individual peptide, one line per responding donor; for Donors Responding: number of allergic donors (34 tested) with T cell response to the region; for % Total Response: share of total Bla g specific response
Protocol: In vitro expansion of Bla g-specific T cells: PBMC were cultured in RPMI 1640 (V Scientific, Tarzana, Calif.) supplemented with 5% human serum (Cellgro, Herndon, Va.) at a density of 2×10^6 cells/ml in 24-well plates (BD Biosciences, San Jose, Calif.) and stimulated with 25 μg/ml German Cockroach (Blatella germanica; Bla g) extract (Greer, Lenoir, N.C.), or individual peptides. […] On day 14, cells were harvested and screened for reactivity against Bla g-specific peptide pools or individual peptides. ELISPOT assays: The production of IL-5, IFN-γ, and IL-10 was analyzed in ELISPOT assays. […] Cells were then incubated at a density of 1×10^5/well either with peptide pools or individual peptides (10 μg/ml), German Cockroach extract (25 μg/ml), PHA (10 μg/ml), or medium (containing 1% DMSO corresponding to the percentage of DMSO in the pools/peptides) as a control. […] Louis, Mo.). Spots were counted by computer-assisted image analysis (Zeiss, KS-ELISPOT reader, Munich, Germany). Each assay was performed in triplicate. The level of statistical significance was determined with a Student's t-test using the mean of triplicate values of the response against relevant pools or individual peptides versus the response against the DMSO control.

Sequence	POST-SIT IFNg	POST-SIT IL-5	POST-SIT IL-10	Total SFCs	PRE-SIT IL-5	PRE-SIT IL-10	PRE-SIT IFNg	Cumulative Response	IFNγ	IL-5	Donors Responding	% Total Response	T cell response pattern (IL-5 / IFN-γ), in words
MVGTILEMLGHRLDD (listed as Blattella germanica) [Region 24, Bla g 6 position 31]	0 SFC/10^6	0 SFC/10^6	0 SFC/10^6	317 SFCs	50 SFC/10^6	0 SFC/10^6	0 SFC/10^6	95.8%	0 SFC	50 SFC	2	1.3%	–
ALREKVLGLPAIKAW (listed as Blattella germanica)	–	–	–	–	–	–	–	–	843 SFC and 100 SFC and 0 SFC and 183 SFC and 147 SFC and 1690 SFC	0 SFC (3×) and 267 SFC and 380 SFC and 1087 SFC	–	–	–
EFVTLAAKFIIEEDS (listed as Blattella germanica) [Region 19, Bla g 6 position 71]	–	–	–	443 SFCs	–	–	–	91.8%	0 SFC	443 SFC	1	1.8%	–
HFFIGDFFVDHYYSE (listed as Blattella germanica) [Region 9, Bla g 2 position 321]	–	–	–	250 SFCs	–	–	–	96.8%	250 SFC	0 SFC	1	1.0%	–
SMPFGKTPVLEIDGK (listed as Blattella germanica) [Region 11, Bla g 5 position 46]	–	–	–	874 SFCs	–	–	–	83.4%	57 SFC and 250 SFC	0 SFC and 567 SFC	2	3.6%	–
FAVATITHAAELQRV (listed as Blattella germanica) [Region 5, Bla g 2 position 11]	–	–	–	855 SFCs	–	–	–	86.9%	855 SFC	0 SFC	1	3.5%	only associated with IFN-γ production
PELQNFLNFLEANGL (listed as Blattella germanica) [Region 4, Bla g 1 position 281]	–	–	–	323 SFCs	–	–	–	94.5%	323 SFC	0 SFC	1	1.3%	–
ISSQYYIQQNGNLCY (listed as Blattella germanica) [Region 8, Bla g 2 position 296]	–	–	–	153 SFCs	–	–	–	99.1%	153 SFC	0 SFC	1	0.6%	–
VLGLPAIKAWVAKRP (listed as Blattella germanica)	–	–	–	–	–	–	–	–	50 SFC and 73 SFC	0 SFC and 133 SFC	–	–	–
EEFVSLASRFLVEED (listed as Blattella germanica)	–	–	–	–	–	–	–	–	220 SFC	0 SFC	–	–	–
GEPIRFLLSYGEKDF (listed as Blattella germanica)	–	–	–	–	–	–	–	–	205 SFC	0 SFC	–	–	–
FLLSYGEKDFEDYRF (listed as Blattella germanica)	–	–	–	–	–	–	–	–	0 SFC (2×) and 77 SFC and 127 SFC	1537 SFC and 0 SFC and 203 SFC and 193 SFC	–	–	–
PEFQSIVQTLNAMPEYQNLL (listed as Blattella germanica) [Region 3, Bla g 1 position 40]	0 SFC/10^6	0 SFC/10^6	0 SFC/10^6	327 SFCs	87 SFC/10^6	0 SFC/10^6	153 SFC/10^6	93.2%	–	–	2	1.3%	–
EVVKANGGYLAAGKL (listed as Blattella germanica)	–	–	–	–	–	–	–	–	80 SFC and 380 SFC	467 SFC and 0 SFC	–	–	–
PEFQSIVQTLNAMPE (listed as Blattella germanica)	–	–	–	–	–	–	–	–	87 SFC	0 SFC	–	–	–
